# Assay results as given in US20230286979A1, “SALT OF DIHYDROPYRIDO[2,3-D]PYRIMIDINONE DERIVATIVE, PREPARATION METHOD THEREFOR, AND USE THEREOF” (NANJING CHIA TAI TIANQING PHARMACEUTICAL CO., LTD., priority 2020, published 2023).
# Test system: AKT kinase
# Test: AKT kinase activity inhibition, summary statement of Test Example 1
# Format: biochemical
# Conditions: as demonstrated by Test Example 1
# Experimental: g) The plate was sealed, the reaction solution was mixed until uniform and reacted at the room temperature for 1 h, and fluorescence signals were detected by using an ENVISION (Perkinelmer) instrument (320 nm stimulation, 665 nm, 615 nm emission). An inhibition rate in each well was calculated from all active wells and background signal wells, a mean value of repetitive wells was calculated, and the half inhibitory activity (IC50) of each compound to be tested was fitted by using the professional drawing analysis software PRISM 6.0.
smiles,measurement,value
"CC(C)NC[C@@H](C(=O)N1CCN(c2ncnc3c2[C@H](C)CC(=O)N3)[C@H]2C[C@H]21)c1ccc(Cl)cc1 (single isomer, unassigned) [Isomer 2 of Example 1]",inhibiting effect on the AKT kinase activity,has an inhibiting effect
